US20260376293A1, “METHODS FOR STUDYING GPR158 PHARMACOLOGY AND IDENTIFICATION OF ITS LIGANDS” (UNIVERSITY OF FLORIDA RESEARCH FOUNDATION, INCORPORATED, priority 2022, published 2026)

Test system: layer II-III pyramidal neurons
Experiment: Whole cell recordings, layer II-III prelimbic cortex neurons, WT mice
Type: cell-based, mouse
Conditions: 1 mM
Method: FIGS. 14A-14H. Effect of glycine on neuronal excitability. A) Schematic of the electrophysiological recordings in slice preparation targeting mPFC neurons of layer II-III. Experiments were conducted with a cocktail of synaptic blockers: picrotoxin (100 μM) (blockade of GABAA receptor chloride channels), strychnine (1 μM) (antagonist of glycine and acetylcholine ionotropic receptors), CNQX (20 μM) (AMPA receptors antagonist), and APV (50 μM) (NMDAR antagonist). B) Representative traces of voltage responses to a 200 pA current ramp injection under control conditions and after bath application of glycine (1 mM) in WT mice. C) Quantification of changes in excitability by number of action potentials fired in response to 200 pA current ramp (n=8 neurons from 5 mice). Nonparametric t-test; Wilcoxon test, **p<0.01. D) Quantification of changes in excitability by rheobase current under control condition and glycine application (n=8 neurons from 5 mice). Nonparametric t-test; Wilcoxon test, **p<0.01. E) Representative traces of voltage responses to a 200 pA current ramp injection obtained from layer II-III pyramidal neurons in GPR158 KO mice under control conditions and during bath application of glycine (1 mM). F) Quantification of changes in excitability by number of action potentials fired in response to 200 pA current ramp (n=4 neurons/3 mice). Nonparametric t-test; Wilcoxon test, ns=p>0.05. G) Quantification of changes in excitability by rheobase current under control condition and glycine application (n=4 neurons/3 mice). Nonparametric t-test; Wilcoxon test, ns=p>0.05. H) Schematic representation of the proposed mechanism of glycine effects on mGlyR. In 14C, 14D, 14F, and 14G, solid circles (Ctrl), circles with no fill (Glycine), columns with no fill (Ctrl), and columns with dotted fill (Glycine).
FIGS. 15A-15H. Effect of glycine and taurine on excitability of layer V neurons and membrane properties of layer II/III neurons in wild type and GPR158 knockout mice. A) Representative traces of voltage responses to a 200 pA current ramp injection obtained from layer V pyramidal neurons in WT mice under control conditions and during bath application of glycine (1 mM). B) Quantification of glycine effects on neuronal excitability by number of action potentials fired in response to 200 pA current ramp under control condition and glycine application (n=4 neurons/3 mice). Nonparametric t-test; Wilcoxon test, ns=p>0.05. C) Quantification of glycine effects on neuronal excitability by rheobase current under control condition and glycine application (n=4 neurons/3 mice). Nonparametric t-test; Wilcoxon test, ns=p>0.05. D) Resting membrane potential of layer V pyramidal neurons in WT mice under control conditions and during bath application of glycine (n=4 neurons/3 mice). […]

[1] = 200 pA current ramp, synaptic blockers

Compound: NCCS(=O)(=O)O [taurine, 2-aminoethanesulfonic acid]
- rheobase current [1]: ns

Compound: NCC(=O)O [glycine]
- resting membrane potential: without changes in the resting membrane potential
- number of action potentials fired [1]: significantly increased the number of action potentials
- rheobase current [1]: decreasing the amount of current necessary to elicit the first action potential
